Assay results taken from US10174044B2, “Fused pyridines as kinase inhibitors” (BRISTOL-MYERS SQUIBB COMPANY, priority 2015, dated 2019).
pIC50: −log10 of the molar value.

Target: GST-Xa-hAAK1 (Homo sapiens (Human), UniProt Q2M2I8)
Assay: AAK1 Kinase Assay
Type: biochemical
Details: bacterially expressed GST-Xa-hAAK1 3.5 nM; ATP 22 μM; fluoresceinated peptide substrate 1.5 μM; 3 hours at room temperature
Method: The assays were performed in U-bottom 384-well plates. […] The reactions were initiated by the combination of bacterially expressed, GST-Xa-hAAK1 with substrates and test compounds. The reactions were incubated at room temperature for 3 hours and terminated by adding 60 μl of 35 mM EDTA buffer to each sample. The reactions were analyzed on the Caliper LabChip 3000 (Caliper, Hopkinton, Mass.) by electrophoretic separation of the fluorescent substrate and phosphorylated product. […] Compounds were dissolved at 10 mM in dimethylsulfoxide (DMSO) and evaluated at eleven concentrations. IC50 values were derived by non-linear regression analysis.

GST-Xa-hAAK1, sequence (Q2M2I8 whole entry): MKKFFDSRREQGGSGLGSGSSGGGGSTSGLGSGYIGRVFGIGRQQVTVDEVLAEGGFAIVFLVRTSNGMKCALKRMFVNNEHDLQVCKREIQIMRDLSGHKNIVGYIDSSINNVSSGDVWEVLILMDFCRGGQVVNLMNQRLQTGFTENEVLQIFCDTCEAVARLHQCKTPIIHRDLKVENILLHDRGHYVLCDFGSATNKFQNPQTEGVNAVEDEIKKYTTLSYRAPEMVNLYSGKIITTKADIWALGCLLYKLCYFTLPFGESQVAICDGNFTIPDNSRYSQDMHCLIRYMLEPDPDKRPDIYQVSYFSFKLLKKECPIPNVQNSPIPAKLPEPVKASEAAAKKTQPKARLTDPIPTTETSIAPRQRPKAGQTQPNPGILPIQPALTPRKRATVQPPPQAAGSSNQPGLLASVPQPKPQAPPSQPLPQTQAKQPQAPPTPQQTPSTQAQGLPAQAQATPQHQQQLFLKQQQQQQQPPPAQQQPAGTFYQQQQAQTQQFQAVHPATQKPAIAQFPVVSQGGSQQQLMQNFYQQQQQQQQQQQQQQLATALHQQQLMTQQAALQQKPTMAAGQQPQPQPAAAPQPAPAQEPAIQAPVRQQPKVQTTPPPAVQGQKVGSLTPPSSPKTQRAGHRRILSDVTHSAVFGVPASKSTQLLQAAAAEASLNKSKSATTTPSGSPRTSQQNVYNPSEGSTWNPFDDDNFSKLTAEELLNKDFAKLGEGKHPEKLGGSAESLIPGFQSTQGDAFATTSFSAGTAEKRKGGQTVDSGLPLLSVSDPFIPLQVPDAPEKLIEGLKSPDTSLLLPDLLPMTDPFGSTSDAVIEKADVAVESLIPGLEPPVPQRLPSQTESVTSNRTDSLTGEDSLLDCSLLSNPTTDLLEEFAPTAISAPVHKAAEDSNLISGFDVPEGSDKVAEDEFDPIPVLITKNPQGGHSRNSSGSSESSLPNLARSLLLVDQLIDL

SMILES	pIC50
Cc1nccc2c3cc(C#N)c(OC[C@@](C)(N)CC(C)C)cc3c(=O)n(C3CC3)c12 [Example 24, (S)-8-((2-amino-2,4-dimethylpentyl)oxy)-5-cyclopropyl-4-methyl-6-oxo-5,6-dihydrobenzo[c][1,7]naphthyridine-9-carbonitrile]	7.16
Cc1cc2c3ccc(OC[C@@](C)(N)CC(C)C)c(C)c3c(=O)n(C)c2cn1 [Example 20, (S)-8-((2-amino-2,4-dimethylpentyl)oxy)-2,5,7-trimethylbenzo[c][1,7]naphthyridin-6(5H)-one]	8.39
[2H]C([2H])(Oc1cc2c(=O)n(CC)c3c(C)nccc3c2cc1Cl)C(C)(N)CC(C)C (stereo not drawn) [Example 12, 8-((2-amino-1,1-dideutero-2,4-dimethylpentyl)oxy)-9-chloro-5-ethyl-4-methylbenzo[c][1,7]naphthyridin-6(5H)-one]	7.52
COC(=O)Nc1ncc2c(c1Cl)-c1cc(F)c(OC[C@@](C)(N)CC(C)C)cc1CO2 [Example 58, (S)-methyl (8-((2-amino-2,4-dimethylpentyl)oxy)-1-chloro-9-fluoro-6H-isochromeno[3,4-c]pyridin-2-yl)carbamate]	7.74
[2H]C([2H])(Oc1ccc2c(c1)c(=O)n(C)c1c(C)nccc21)C(C)(N)CC(C)C (stereo not drawn) [Example 13, 8-((2-amino-1,1-dideutero-2,4-dimethylpentyl)oxy)-4,5-dimethylbenzo[c][1,7]naphthyridin-6(5H)-one]	6.93
COC(=O)Nc1nc(Cl)c2c(c1Cl)-c1ccc(OC[C@@](C)(N)CC(C)C)c(Cl)c1CO2 [Example 63, (S)-methyl (8-((2-amino-2,4-dimethylpentyl)oxy)-1,4,7-trichloro-6H-isochromeno[3,4-c]pyridin-2-yl)carbamate]	7.82

More lines, in order of rising pIC50, values ahead:

pIC50	SMILES
5.87	CCn1c(=O)c2cc(OC[C@@](C)(N)CC(C)C)ccc2c2ccnc(C)c21 [Example 19, (S)-8-((2-amino-2,4-dimethylpentyl)oxy)-5-ethyl-4-methylbenzo[c][1,7]naphthyridin-6(5H)-one]
5.95	Cc1nccc2c3ccc(OC[C@@](C)(N)CC(C)C)cc3c(=O)n(CCO)c12 [Example 21, (S)-8-((2-amino-2,4-dimethylpentyl)oxy)-5-(2-hydroxyethyl)-4-methylbenzo[c][1,7]naphthyridin-6(5H)-one]
6.74	CC(C)C[C@](C)(N)COc1ccc2c(c1)COc1cnc(S(C)(=O)=O)cc1-2 [Example 59, (S)-2,4-dimethyl-1-((2-(methylsulfonyl)-6H-isochromeno[3,4-c]pyridin-8-yl)oxy)pentan-2-amine]
6.91	CC(C)C[C@](C)(N)COc1ccc2c(c1)COc1cnc(NS(C)(=O)=O)cc1-2 [Example 55, (S)—N-(8-((2-amino-2,4-dimethylpentyl)oxy)-6H-isochromeno[3,4-c]pyridin-2-yl)methanesulfonamide]
7.47	CC(C)C[C@](C)(N)COc1ccc2c(c1)COc1cnc(F)cc1-2 [Example 57, (S)-1-((2-fluoro-6H-isochromeno[3,4-c]pyridin-8-yl)oxy)-2,4-dimethylpentan-2-amine]
8.09	COC(=O)Nc1cc2c(cn1)OCc1cc(OCC(C)(N)CC(C)C)ccc1-2 (stereo not drawn) [Example 39, methyl (8-((2-amino-2,4-dimethylpentyl)oxy)-6H-isochromeno[3,4-c]pyridin-2-yl)carbamate]
8.59	CC(=O)Nc1cc2c(cn1)OCc1cc(OCC(C)(N)CC(C)C)ccc1-2 (stereo not drawn) [Example 36, N-(8-((2-amino-2,4-dimethylpentyl)oxy)-6H-isochromeno[3,4-c]pyridin-2-yl)acetamide]
8.59	CC(C)CC(C)(N)COc1ccc2c(c1)c(=O)[nH]c1cnccc12 (stereo not drawn) [Example 8, 8-((2-amino-2,4-dimethylpentyl)oxy)benzo[c][1,7]naphthyridin-6(5H)-one]
8.68	CC(C)C[C@](C)(N)COc1ccc2c(c1)COc1cnc(NC(=O)OC(C)C)cc1-2 [Example 54, (S)-isopropyl (8-((2-amino-2,4-dimethylpentyl)oxy)-6H-isochromeno[3,4-c]pyridin-2-yl)carbamate]
